Reference: ChEMBL document CHEMBL5244255, “An insight on medicinal attributes of 1,2,4-triazoles” (Eur J Med Chem, 2020)
Converted amounts (≈) assume the structure as drawn. “And” between values parts separate entries of the source, which are not always exact repeats. Equal entries are not always repeated.

Columns and labels:
DU-145 = assay: Anticancer activity against human DU-145 cells assessed as cell growth inhibition incubated for 48 hrs by MTT assay; format: functional, cell-based; details: DU-145, 48 h
A549 = assay: Anticancer activity against human A549 cells assessed as cell growth inhibition incubated for 48 hrs by MTT assay; format: functional, cell-based; details: A549, 48 h
BT-20 = assay: Anticancer activity against human BT-20 cells assessed as cell growth inhibition incubated for 48 hrs by MTT assay; format: functional, cell-based; details: BT-20, 48 h
[1] = Anticancer activity against human SK-MEL-128 cells assessed as cell growth inhibition incubated for 48 hrs by MTT assay; format: functional, cell-based; details: SK-MEL-128, 48 h
Plasmodium falciparum = assay: Antimalarial activity against Plasmodium falciparum; format: functional, organism-based
[2] = tested on: Mycobacterium tuberculosis; assay: Potency index, ratio of test compound MIC to Pyrazinamide MIC for antimycobacterial activity against Mycobacterium tuberculosis H37Rv; format: functional
[3] = tested on: Mycobacterium tuberculosis; assay: Antimycobacterial activity against Mycobacterium tuberculosis H37Rv measured […] by MABA assay; format: functional
Candida albicans = assay: Antifungal activity against Candida albicans Y0109 assessed as fungal growth inhibition; format: functional
[4] = Plasmodium falciparum, read-out: IC50

For `CCN(CC)c1ccc2cc(C(=O)NNC(=O)Cn3nc(C)n(N)c3=O)c(=O)oc2c1`, which IC50 (DU-145) is on record?
Its IC50 is 3.1 µg/mL (≈ 7.22 µM).

What about the IC50 (A549) of the same compound?
Its IC50 is 3.1 µg/mL (≈ 7.22 µM).

What about the IC50 (BT-20) of the same compound?
Its IC50 is 3.1 µg/mL (≈ 7.22 µM).

What about the IC50 [1] of the same compound?
The IC50 was 3.1 µg/mL (≈ 7.22 µM).

With `Cc1ccc(-c2cc(-c3c(C)nn(-c4ccccc4)c3-n3cncn3)n3c(c2)nc2ccccc23)cc1` as the compound, how does the IC50 (Plasmodium falciparum; [4]) read?
The IC50 was 0.041 µg/mL (≈ 0.0851 µM).

What does the source list for `COc1ccc(-n2ncn(Cc3cn(Cc4cc(=O)oc5ccc6ccccc6c45)nn3)c2=O)cc1`?
Ratio [2]: 2; MIC [3]: 1.6 µg/mL (≈ 3.33 µM)

Which IC50 (Plasmodium falciparum; [4]) does the source give for `COc1ccc(-c2cc(-c3c(C)nn(-c4ccccc4)c3-n3cncn3)n3c(c2)nc2ccccc23)cc1` here?
The IC50 was 0.041 µg/mL (≈ 0.0824 µM).

For `C=C(CCCC)C(=O)OC1CCN(CC(O)(Cn2cncn2)c2ccc(F)cc2F)CC1` (centres undefined), which MIC80 (Candida albicans) is on record?
The MIC80 was 9 nM (≈ 4.04 ng/mL).

With `COc1ccc(-n2ncn(Cc3cn(Cc4cc(=O)oc5ccc(Cl)cc45)nn3)c2=O)cc1` as the compound, how does the Ratio [2] read?
The Ratio was 2.

What about the MIC [3] of the same compound?
Its MIC is 1.6 µg/mL (≈ 3.44 µM).

Which results are given for `Nn1c(Cc2ccc(Cl)cc2)nn(CC(=O)NNC(=O)c2cc3cc(Cl)cc(Cl)c3oc2=O)c1=O`?
IC50 (DU-145): 3.1 µg/mL (≈ 5.76 µM); IC50 (A549): 3.1 µg/mL (≈ 5.76 µM); IC50 (BT-20): 3.1 µg/mL (≈ 5.76 µM); IC50 [1]: 3.1 µg/mL (≈ 5.76 µM)

For `CC(C)C(=O)OC1CCN(CC(O)(Cn2cncn2)c2ccc(F)cc2F)CC1` (centres undefined), which MIC80 (Candida albicans) is on record?
Its MIC80 is 9 nM (≈ 3.68 ng/mL).

Which MIC80 (Candida albicans) does the source give for `O=C(CCl)OC1CCN(CC(O)(Cn2cncn2)c2ccc(F)cc2F)CC1` (centres undefined) here?
The MIC80 was 9 nM (≈ 3.73 ng/mL).

For `O=C(OC1CCN(CC(O)(Cn2cncn2)c2ccc(F)cc2F)CC1)C(F)(F)F` (centres undefined), which MIC80 (Candida albicans) is on record?
The MIC80 was 9 nM (≈ 3.91 ng/mL).

With `O=c1cc(Cn2cc(Cn3cnn(-c4ccccc4)c3=O)nn2)c2c(ccc3ccccc32)o1` as the compound, how does the Ratio [2] read?
Its Ratio is 2.

And the MIC [3]?
The MIC was 1.6 µg/mL (≈ 3.55 µM).

With `CCC(=O)OC1CCN(CC(O)(Cn2cncn2)c2ccc(F)cc2F)CC1` (centres undefined) as the compound, how does the MIC80 (Candida albicans) read?
The MIC80 was 9 nM (≈ 3.55 ng/mL).

With `CCCCCCC(=O)OC1CCN(CC(O)(Cn2cncn2)c2ccc(F)cc2F)CC1` (centres undefined) as the compound, how does the MIC80 (Candida albicans) read?
Its MIC80 is 9 nM (≈ 4.05 ng/mL).

With `CCCCCCCCCCCC(=O)OC1CCN(CC(O)(Cn2cncn2)c2ccc(F)cc2F)CC1` (centres undefined) as the compound, how does the MIC80 (Candida albicans) read?
The MIC80 was 9 nM (≈ 4.69 ng/mL).

Which IC50 (Plasmodium falciparum; [4]) does the source give for `Cc1nn(-c2ccccc2)c(-n2cncn2)c1-c1cc(-c2ccccc2)cc2nc3ccccc3n12` here?
Its IC50 is 0.041 µg/mL (≈ 0.0877 µM).

Which IC50 (DU-145) does the source give for `Nn1c(Cc2ccc(Br)cc2)nn(CC(=O)NNC(=O)c2cc3cc(Cl)cc(Cl)c3oc2=O)c1=O` here?
Its IC50 is 3.1 µg/mL (≈ 5.32 µM).

What about the IC50 (A549) of the same compound?
Its IC50 is 3.1 µg/mL (≈ 5.32 µM).

What about the IC50 (BT-20) of the same compound?
The IC50 was 3.1 µg/mL (≈ 5.32 µM).

And the IC50 [1]?
The IC50 was 3.1 µg/mL (≈ 5.32 µM).

With `Nn1c(Cc2ccc(Cl)c(Cl)c2)nn(CC(=O)NNC(=O)c2cc3cc(Cl)ccc3oc2=O)c1=O` as the compound, how does the IC50 (DU-145) read?
The IC50 was 3.1 µg/mL (≈ 5.76 µM).

What about the IC50 (A549) of the same compound?
Its IC50 is 3.1 µg/mL (≈ 5.76 µM).

And the IC50 (BT-20)?
Its IC50 is 3.1 µg/mL (≈ 5.76 µM).

What about the IC50 [1] of the same compound?
The IC50 was 3.1 µg/mL (≈ 5.76 µM).

With `CC(=O)OC1CCN(CC(O)(Cn2cncn2)c2ccc(F)cc2F)CC1` (centres undefined) as the compound, how does the MIC80 (Candida albicans) read?
The MIC80 was 9 nM (≈ 3.42 ng/mL).

For `COc1ccc(-n2ncn(Cc3cn(Cc4cc(=O)oc5cc(C)ccc45)nn3)c2=O)cc1`, which Ratio [2] is on record?
Its Ratio is 2.

What about the MIC [3] of the same compound?
Its MIC is 1.6 µg/mL (≈ 3.6 µM).

With `CCCCCCCCCC(=O)OC1CCN(CC(O)(Cn2cncn2)c2ccc(F)cc2F)CC1` (centres undefined) as the compound, how does the MIC80 (Candida albicans) read?
Its MIC80 is 9 nM (≈ 4.43 ng/mL).

For `COc1ccc(-n2ncn(Cc3cn(Cc4cc(=O)oc5ccc(C(C)(C)C)cc45)nn3)c2=O)cc1`, which Ratio [2] is on record?
The Ratio was 2.

What about the MIC [3] of the same compound?
The MIC was 1.6 µg/mL (≈ 3.29 µM).

Which MIC80 (Candida albicans) does the source give for `CCCCCCCC(=O)OC1CCN(CC(O)(Cn2cncn2)c2ccc(F)cc2F)CC1` (centres undefined) here?
The MIC80 was 9 nM (≈ 4.18 ng/mL).

With `CCN(CC)c1ccc2cc(C(=O)NNC(=O)Cn3nc(Cc4ccc(Cl)c(Cl)c4)n(N)c3=O)c(=O)oc2c1` as the compound, how does the IC50 (DU-145) read?
The IC50 was 3.1 µg/mL (≈ 5.4 µM).

What about the IC50 (A549) of the same compound?
Its IC50 is 3.1 µg/mL (≈ 5.4 µM).

And the IC50 (BT-20)?
Its IC50 is 3.1 µg/mL (≈ 5.4 µM).

What about the IC50 [1] of the same compound?
The IC50 was 3.1 µg/mL (≈ 5.4 µM).

For `Cc1nn(-c2ccccc2)c(-n2cncn2)c1-c1cc(-c2cc[nH]c2)cc2nc3ccccc3n12`, which IC50 (Plasmodium falciparum) is on record?
The IC50 was 0.092 µg/mL and 0.041 µg/mL.

Which Ratio [2] does the source give for `Cc1ccc2c(Cn3cc(Cn4cnn(-c5ccccc5)c4=O)nn3)cc(=O)oc2c1` here?
The Ratio was 2.

What about the MIC [3] of the same compound?
Its MIC is 1.6 µg/mL (≈ 3.86 µM).

For `O=C(OC1CCN(CC(O)(Cn2cncn2)c2ccc(F)cc2F)CC1)C(F)(F)Cl` (centres undefined), which MIC80 (Candida albicans) is on record?
The MIC80 was 9 nM (≈ 4.06 ng/mL).

For `Cc1nn(-c2ccccc2)c(-n2cncn2)c1-c1cc(-c2ccc(O)cc2)cc2nc3ccccc3n12`, which IC50 (Plasmodium falciparum) is on record?
Its IC50 is 0.041 µg/mL (≈ 0.0848 µM).

And the IC50 (Plasmodium falciparum; [4])?
Its IC50 is 0.054 µg/mL (≈ 0.112 µM).

With `CC(C)(C)C(=O)OC1CCN(CC(O)(Cn2cncn2)c2ccc(F)cc2F)CC1` (centres undefined) as the compound, how does the MIC80 (Candida albicans) read?
The MIC80 was 9 nM (≈ 3.8 ng/mL).

With `Cc1nn(-c2ccccc2)c(-n2cncn2)c1-c1cc(-c2ccc(-c3cccs3)cc2)cc2nc3ccccc3n12` as the compound, how does the IC50 (Plasmodium falciparum; [4]) read?
The IC50 was 0.041 µg/mL (≈ 0.0746 µM).

With `CCCC(=O)OC1CCN(CC(O)(Cn2cncn2)c2ccc(F)cc2F)CC1` (centres undefined) as the compound, how does the MIC80 (Candida albicans) read?
Its MIC80 is 9 nM (≈ 3.68 ng/mL).

With `Cc1nn(-c2ccccc2)c(-n2cncn2)c1-c1cc(-c2ccc(F)cc2)cc2nc3ccccc3n12` as the compound, how does the IC50 (Plasmodium falciparum) read?
The IC50 was 0.041 µg/mL (≈ 0.0844 µM).

And the IC50 (Plasmodium falciparum; [4])?
The IC50 was 0.041 µg/mL (≈ 0.0844 µM).
